Data on two compounds can be found in ChEMBL document CHEMBL1201862, “PubChem BioAssay data set” (2004).

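In this assay, cells in 96-well plates receive the compound at five concentrations for 48 hours. Endpoints are linearly interpolated between the surrounding concentrations. GI50 marks 50% less growth.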 Active and inactive are the calls of the source. Rule as the data show it: active = GI50 up to about 1.1 µM and inactive = higher.

Some test systems named below: TK-10; SK-MEL-5; MDA-MB-435; SN12C; MDA-N; A498; HCT-116; KM-20L2; SNB-78; HCT-15; K562; 786-0; HOP-62; NCI-H460; RPMI-8226; OVCAR-5; CAKI-1; KM12; IGROV-1; ACHN.
What all share (test): DTP human tumour cell line panel, 48 h

On to `C=C(CN(C)C)C(=O)c1ccc(C)cc1C`, for which the GI50 in the assay with TK-10 is 8730 nM (inactive); in the assay on SK-MEL-5 it was 14100 nM (inactive); in the assay with MDA-MB-435, 5940 nM (inactive); with SN12C it was 11800 nM (inactive); with MDA-N, 4550 nM (inactive); in the assay on A498, 17200 nM (inactive). Also, the GI50 in the assay with HCT-116 was 5610 nM (inactive); in the assay on KM-20L2 it was 19900 nM (inactive); with SNB-78, 22900 nM (inactive); in the assay with HCT-15 it was 4520 nM; in the assay on K562, 1150 nM (inactive); in the assay with 786-0, 5190 nM (inactive). In addition, the GI50 with HOP-62 was 32200 nM (inactive); in the assay on NCI-H460, 18800 nM (inactive); with RPMI-8226 it was 1160 nM (inactive); with OVCAR-5 it was 14100 nM (inactive); with CAKI-1 it was 3090 nM (inactive); in the assay with KM12, 15900 nM (inactive). The GI50 in the assay on IGROV-1 is 7230 nM (inactive); with ACHN, 7730 nM (inactive).

Regarding `O=C1c2ccsc2C(=O)c2sc(CO)cc21`, the GI50 with TK-10 is 5930 nM (inactive); with SK-MEL-5, < 11.8 nM (active); in the assay with MDA-MB-435, < 13.2 nM (active); in the assay with SN12C, 38.6 nM (active); in the assay with MDA-N it was < 13.3 nM (active); with A498 it was 331 nM (active). The GI50 was 110 nM (active) with HCT-116; 182 nM (active) in the assay on KM-20L2; 322 nM (active) in the assay on SNB-78; 42.1 nM in the assay with HCT-15; 237 nM (active) in the assay with K562; 385 nM (active) in the assay with 786-0. Also, the GI50 in the assay on HOP-62 was 184 nM (active); in the assay on NCI-H460, 1470 nM (inactive); in the assay with RPMI-8226, 220 nM (active); with OVCAR-5, 1430 nM (inactive); in the assay on CAKI-1, 6470 nM (inactive); in the assay with KM12 it was 1790 nM (inactive). The GI50 was 627 nM (active) in the assay on IGROV-1 and 68.1 nM (active) in the assay on ACHN.
